Assay results published in PubChem BioAssay (NCI).
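Cells were grown in 96-well plates and exposed to each compound for 48 hours at five concentrations; endpoints were interpolated linearly between bracketing concentrations, or set to the highest concentration if not reached. Abbreviation: GI50, concentration required for 50% inhibition of growth. TGI is the concentration that stops growth completely.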

Legend:
Assay in all cases: DTP human tumour cell line panel, 48 h
DU-145 prostate = tested on: DU-145 prostate
PC-3 prostate = tested on: PC-3 prostate
NCI-H460 lung = tested on: NCI-H460 lung
UO-31 renal = tested on: UO-31 renal
MALME-3M melanoma = tested on: MALME-3M melanoma
A549 NSCLC = tested on: A549 NSCLC
HCT-15 colon = tested on: HCT-15 colon
BT-549 breast = tested on: BT-549 breast
SF-539 CNS = tested on: SF-539 CNS
SF-268 CNS = tested on: SF-268 CNS

Row | Structure (SMILES) | TGI (DU-145 prostate) [µM] | TGI (PC-3 prostate) [µM] | TGI (NCI-H460 lung) [µM] | TGI (UO-31 renal) [µM] | TGI (MALME-3M melanoma) [µM] | TGI (A549 NSCLC) [µM] | TGI (HCT-15 colon) [µM] | TGI (BT-549 breast) [µM] | TGI (SF-539 CNS) [µM] | TGI (SF-268 CNS) [µM] | GI50 (DU-145 prostate) [µM] | GI50 (PC-3 prostate) [µM] | GI50 (NCI-H460 lung) [µM] | GI50 (UO-31 renal) [µM] | GI50 (MALME-3M melanoma) [µM] | GI50 (A549 NSCLC) [µM] | GI50 (HCT-15 colon) [µM] | GI50 (BT-549 breast) [µM] | GI50 (SF-539 CNS) [µM] | GI50 (SF-268 CNS) [µM]
1 | C=C(C)COC1CCCCO1 (stereo not given) | > 100 | > 100 | > 100 | > 100 | > 100 | > 100 | > 100 | > 100 | > 100 | > 100 | – | – | – | – | – | – | – | – | – | –
2 | Nc1[nH]nc2nc3ccccc3nc12 | > 100 | > 100 | > 100 | > 100 | > 100 | > 100 | > 100 | > 100 | > 100 | > 100 | – | – | – | – | – | – | – | – | – | –
3 | CCOC(=O)C(NC(=O)c1ccccc1)(N1CCN(c2cc3c(cc2F)c(=O)c(C(=O)O)cn3CC)CC1)C(F)(F)F (stereo not given) | > 100 | > 100 | > 100 | 98.1 | 90.1 | > 100 | 64.9 | > 100 | 82.9 | > 100 | – | – | – | – | – | – | – | – | – | –
4 | C=C1CC(Cn2ccc(=O)[nH]c2=O)(c2ccc(Cl)cc2)OC1=O (stereo not given) | 23.2 | 19.2 | 26.1 | 33 | 7.13 | 32.2 | 6.91 | 18 | 30.4 | 43.5 | – | – | – | – | – | – | – | – | – | –
5 | O=C1CC[C@@]2(O)[C@H]3Cc4ccc(-c5ccccc5)c5c4[C@@]2(CCN3CC2CC2)[C@H]1O5 | 62.7 | 46.7 | 35.5 | 32.2 | 29.9 | 43.6 | 41.2 | 31.3 | 33.5 | 29.7 | – | – | – | – | – | – | – | – | – | –
6 | Cc1cc(=O)n2nc(CCl)sc2n1 | 40.6 | 29.8 | 29.5 | 28.8 | 26.4 | 35 | 27.1 | 17.5 | 34.1 | 39.5 | – | – | – | – | – | – | – | – | – | –
7 | CCCCCCCCCCCC[C@@H](O)[C@H]1CCC([C@H](O)CCCCC(=O)CCCCCCCC2=C[C@H](C)OC2=O)O1 (stereo not given in full) | > 50 | > 50 | > 50 | > 50 | > 50 | > 50 | > 50 | > 50 | > 50 | > 50 | – | – | – | – | – | – | – | – | – | –
8 | Cc1c(N=Nc2ccccc2)c(C)n(C2OC(CO)C(O)C(O)C2O)c(=S)c1C#N (stereo not given) | > 100 | 78.6 | > 100 | 73.1 | > 100 | > 100 | > 100 | 45.8 | 57.8 | > 100 | – | – | – | – | – | – | – | – | – | –
9 | Nc1ncn2c(n1)nc1ccccc12 | > 100 | > 100 | > 100 | > 100 | > 100 | > 100 | > 100 | > 100 | > 100 | > 100 | – | – | – | – | – | – | – | – | – | –
10 | CC(=O)Oc1ccc2c(c1)CC[C@@H]1C2[C@@H](O[N+](=O)[O-])C[C@@]2(C)C1CC[C@@H]2O[N+](=O)[O-] (stereo not given in full) | 28.3 | 22.9 | 28.7 | 26.1 | 28.8 | 29.1 | 28.1 | 33.8 | 35.9 | 29.7 | – | – | – | – | – | – | – | – | – | –
11 | Cc1cc(S(=O)(=O)Nc2nnc3cnc4ccccc4n23)c(S)cc1Cl | > 100 | > 100 | > 100 | > 100 | > 100 | > 100 | > 100 | > 100 | > 100 | > 100 | – | – | – | – | – | – | – | – | – | –
12 | NCC(O)CNC(=O)c1ccc(-c2ccc(-c3ccc(C(=O)NCC(O)CN)cc3)o2)cc1 (stereo not given) | 50.6 | 48.3 | > 100 | > 100 | 44.2 | > 100 | > 100 | 88.5 | 41.6 | 69.3 | – | – | – | – | – | – | – | – | – | –
13 | CC(=O)Oc1c2c(c3n(c1=O)CCCC3)C(=O)N(c1ccccc1)C2=O | > 100 | > 100 | > 100 | > 100 | > 100 | > 100 | > 100 | > 100 | > 100 | > 100 | – | – | – | – | – | – | – | – | – | –
14 | COC1=CC(=O)CC(C)C12Oc1c(Cl)c(OC)cc(OC)c1C2=O (stereo not given) | > 100 | > 70.3 | > 100 | > 88.1 | > 100 | > 100 | > 100 | > 89 | 42.1 | > 100 | – | – | – | – | – | – | – | – | – | –
15 | Cc1ccc(C2=C(C#N)C(N)OC3=C2COc2ccccc23)cc1 (stereo not given) | 69.1 | 57.2 | > 100 | 33.7 | 82.1 | > 100 | > 100 | > 100 | > 100 | 85.9 | – | – | – | – | – | – | – | – | – | –
16 | COc1ccc(N=NC(=O)NC(CC(C)C)C(N)=O)cc1 (stereo not given) | > 100 | > 100 | > 31.6 | > 65.4 | > 100 | > 31.6 | > 31.6 | > 100 | > 31.6 | > 100 | – | – | – | – | – | – | – | – | – | –

Row | Structure (SMILES) | TGI (DU-145 prostate) [µM] | TGI (PC-3 prostate) [µM] | TGI (NCI-H460 lung) [µM] | TGI (UO-31 renal) [µM] | TGI (MALME-3M melanoma) [µM] | TGI (A549 NSCLC) [µM] | TGI (HCT-15 colon) [µM] | TGI (BT-549 breast) [µM] | TGI (SF-539 CNS) [µM] | TGI (SF-268 CNS) [µM] | GI50 (DU-145 prostate) [µM] | GI50 (PC-3 prostate) [µM] | GI50 (NCI-H460 lung) [µM] | GI50 (UO-31 renal) [µM] | GI50 (MALME-3M melanoma) [µM] | GI50 (A549 NSCLC) [µM] | GI50 (HCT-15 colon) [µM] | GI50 (BT-549 breast) [µM] | GI50 (SF-539 CNS) [µM] | GI50 (SF-268 CNS) [µM]
17 | COC(=O)c1c(O)ccc2[nH]c3c(O)c4ccccc4cc3c12 | 71 | > 100 | 63.5 | 84.9 | 51.9 | > 100 | 48.1 | > 100 | 60.3 | 54.7 | – | – | – | – | – | – | – | – | – | –
18 | S=c1[nH]n2c(CCCCCCCCc3nnc4sc(=S)[nH]n34)nnc2s1 | > 100 | > 100 | > 100 | > 100 | > 100 | > 100 | > 100 | > 100 | > 100 | > 100 | – | – | – | – | – | – | – | – | – | –
19 | Cn1c(CO)ccc1-c1ccc(-c2ccc[se]2)[se]1 | 58 | > 100 | > 100 | > 100 | > 100 | > 100 | > 100 | > 81.4 | 31.7 | > 100 | – | – | – | – | – | – | – | – | – | –
20 | COc1cc(OC)cc(-c2n/c(=C\c3c(O)[nH]c4ccc(OC)cc34)cc3c2=Nc2ccccc2-3)c1 | 10.7 | 62.2 | 5.62 | > 100 | 5.42 | 26.1 | 15 | 4.7 | 25.4 | 41.2 | 3.49 | 20.5 | 2.36 | 41.6 | 2.27 | 11.6 | 3.85 | 2.19 | 10.4 | 10.2
21 | Cc1oc2c(c1C)S(=O)(=O)C(C#N)=C(N(C)C)N2 | > 100 | > 100 | > 100 | > 100 | > 100 | > 100 | > 100 | > 100 | > 100 | > 100 | – | – | – | – | – | – | – | – | – | –
22 | CCOC(=O)NC(OC)(C(F)(F)F)C(F)(F)F | > 100 | > 100 | > 100 | > 100 | > 100 | > 100 | > 100 | > 100 | > 100 | > 100 | – | – | – | – | – | – | – | – | – | –
23 | COC(=O)c1ccc(C)cc1CC1Cc2ccc(C)cc2C1=O (stereo not given) | > 100 | 71.8 | 31.3 | 64 | 24.3 | 93.5 | 13.1 | 52.6 | 19.5 | 61.7 | – | – | – | – | – | – | – | – | – | –
24 | Cc1ccc(-c2nc(N/N=C/c3ccc(O)cc3)c3ccccc3n2)cc1 | 75.2 | 31.7 | 50.1 | 24.7 | 29.4 | > 100 | > 100 | > 100 | > 100 | > 100 | – | – | – | – | – | – | – | – | – | –
25 | CN(C)c1ccc(/C=C(\NC(=O)c2ccccc2)C2=NC(CCC(=O)O)C(=O)O2)cc1 (stereo not given) | > 50 | > 50 | > 50 | > 50 | > 50 | > 50 | > 50 | > 50 | > 50 | > 50 | – | – | – | – | – | – | – | – | – | –
26 | CC(=O)Oc1c(-c2ccccc2)sc2ccccc12 | 27.9 | 97.5 | 27.7 | 36.6 | 37.2 | 37.9 | 37.1 | 50 | 46.8 | 71.2 | – | – | – | – | – | – | – | – | – | –
27 | NC1=Nc2cc(Cl)ccc2Sc2nc3ccccc3n21 | > 100 | > 100 | > 100 | > 100 | > 100 | > 100 | > 100 | > 100 | > 100 | > 100 | – | – | – | – | – | – | – | – | – | –
28 | O=C(CCC=C(S(=O)(=O)c1ccccc1)S(=O)(=O)c1ccccc1)c1ccccc1 | 25.4 | 14.2 | 33.8 | 18.3 | 17.9 | 49.6 | 20.8 | 18.2 | 6.57 | 18.8 | – | – | – | – | – | – | – | – | – | –
29 | CC(C)(C)c1cc(OCc2nn3c(Cc4ccccc4)nnc3s2)c(Cl)cc1OCc1nn2c(Cc3ccccc3)nnc2s1 | > 100 | > 100 | > 100 | > 100 | 36.6 | > 100 | > 100 | > 100 | > 100 | > 100 | – | – | – | – | – | – | – | – | – | –
30 | COc1cc2c(c(O)c1OC)CC1CCC(=O)N1C2c1cccc2ccccc12 (stereo not given) | 37.3 | 43.7 | 61.1 | 55.4 | 44.5 | > 100 | 82.9 | 41.6 | 30.6 | 78.7 | – | – | – | – | – | – | – | – | – | –
31 | O=C(O)c1cnc(-n2[nH]c3c(c2=O)CCCC3)[nH]c1=O | > 100 | > 100 | > 100 | > 100 | > 100 | > 100 | > 100 | > 100 | > 100 | > 100 | – | – | – | – | – | – | – | – | – | –
